Source: US20250230193A1, “CYCLIC COMPOUND HAVING SELECTIVE KRAS INHIBITORY EFFECT ON HRAS AND NRAS” (CHUGAI SEIYAKU KABUSHIKI KAISHA, priority 2022, published 2025)

What was measured:
[1] = molecular target: GDP-bound HRAS wild-type protein (Homo sapiens, UniProt P01112); assay: Binding to HRAS by surface plasmon resonance (SPR), Single Cycle Kinetics; conditions: SPR; KD ratio class
[2] = molecular target: GDP-bound NRAS wild-type protein (Homo sapiens, UniProt P01111); assay: Binding to NRAS by surface plasmon resonance (SPR), Single Cycle Kinetics; conditions: SPR; KD ratio class
Chain of GDP-bound NRAS wild-type protein (P01111 whole entry): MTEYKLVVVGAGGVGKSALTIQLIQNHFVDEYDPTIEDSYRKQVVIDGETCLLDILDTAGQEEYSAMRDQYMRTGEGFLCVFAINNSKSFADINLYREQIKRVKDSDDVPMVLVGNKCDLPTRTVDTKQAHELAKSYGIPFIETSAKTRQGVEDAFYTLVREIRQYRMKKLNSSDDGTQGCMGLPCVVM

[3] = system: human lung cancer strain NCI-H441; assay: cells; conditions: NCI-H441, 96 h, read-out: NCI-H441 IC50 (nM)

Chain of GDP-bound HRAS wild-type protein (P01112 whole entry): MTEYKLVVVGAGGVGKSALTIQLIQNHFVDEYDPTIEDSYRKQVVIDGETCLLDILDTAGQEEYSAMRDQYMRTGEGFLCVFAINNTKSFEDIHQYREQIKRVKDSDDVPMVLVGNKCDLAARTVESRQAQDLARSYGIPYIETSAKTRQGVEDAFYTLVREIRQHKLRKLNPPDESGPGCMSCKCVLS

Compound	HRAS/KRAS (ratio of KD value for GDP-bound HRAS wild-type protein to KD value for KRAS) [1]	NRAS/KRAS (ratio of KD value for GDP-bound NRAS wild-type protein to KD value for KRAS) [2]	IC50 [3] [nM]
CCO[C@@H]1C[C@H]2C(=O)NC3(CCC3)C(=O)N(C)[C@@H](C3CCCC3)C(=O)N(C)[C@H](C(=O)N(C)C)CC(=O)N(C)[C@@H](CC(C)C)C(=O)N[C@@H]([C@@H](C)CC)C(=O)N(C)CC(=O)N(C)[C@H]3C/C=C\CCN(C3=O)[C@@H](Cc3ccc(F)cc3)C(=O)N(C)CC(=O)N[C@@H](CCc3ccc(Cl)c(Cl)c3)C(=O)N2C1 [PP1482]	B (a compound having 3 or more and less than 10 is denoted as B)	A (a compound having 10 or more and less than 20 is denoted as A)	76.4
CCO[C@@H]1C[C@H]2C(=O)NC3(CCC3)C(=O)N(C)[C@@H](C3CCCC3)C(=O)N(C)[C@H](C(=O)N(C)C)CC(=O)N(C)[C@@H](CC(C)C)C(=O)N[C@@H]([C@@H](C)CC)C(=O)N(C)CC(=O)N(C)[C@H]3C/C=C\CCN(C3=O)[C@@H](Cc3ccc(F)cc3)C(=O)N(C)CC(=O)N[C@@H](CCc3cc(F)c(Cl)c(F)c3)C(=O)N2C1 [PP1483]	B (a compound having 3 or more and less than 10 is denoted as B)	A (a compound having 10 or more and less than 20 is denoted as A)	90.3
CCO[C@@H]1C[C@H]2C(=O)NC3(CCC3)C(=O)N(C)[C@@H](C3CCCC3)C(=O)N(C)[C@H](C(=O)N(C)C)CC(=O)N(C)[C@@H](CC3CC3)C(=O)N[C@@H]([C@@H](C)CC)C(=O)N(C)CC(=O)N(C)[C@H]3C/C=C\CCN(C3=O)[C@@H](Cc3ccc(C)cc3)C(=O)N(C)CC(=O)N[C@@H](CCc3cc(F)c(Cl)c(F)c3)C(=O)N2C1 [PP1484]	A (a compound having 10 or more and less than 20 is denoted as A)	A (a compound having 10 or more and less than 20 is denoted as A)	59.3
CCO[C@@H]1C[C@H]2C(=O)NC3(CCC3)C(=O)N(C)[C@@H](C3CCCC3)C(=O)N(C)[C@H](C(=O)N(C)C)CC(=O)N(C)[C@@H](CC3CC3)C(=O)N[C@@H]([C@@H](C)CC)C(=O)N(C)CC(=O)N(C)[C@H]3C/C=C\CCN(C3=O)[C@@H](Cc3ccc(C)cc3)C(=O)N(C)CC(=O)N[C@@H](CCc3ccc(Cl)c(Cl)c3)C(=O)N2C1 [PP1485]	A (a compound having 10 or more and less than 20 is denoted as A)	A (a compound having 10 or more and less than 20 is denoted as A)	30.5
CCO[C@@H]1C[C@H]2C(=O)NC3(CCC3)C(=O)N(C)[C@@H](C3CCCC3)C(=O)N(C)[C@H](C(=O)N(C)C)CC(=O)N(C)[C@@H](CC3CCCC3)C(=O)N[C@@H]([C@@H](C)CC)C(=O)N(C)CC(=O)N(C)[C@H]3C/C=C\CCN(C3=O)[C@@H](Cc3ccc(C)cc3)C(=O)N(C)CC(=O)N[C@@H](CCc3cc(F)c(Cl)c(F)c3)C(=O)N2C1 [PP1486]	A (a compound having 10 or more and less than 20 is denoted as A)	A (a compound having 10 or more and less than 20 is denoted as A)	15
CCO[C@@H]1C[C@H]2C(=O)NC3(CCC3)C(=O)N(C)[C@@H](C3CCCC3)C(=O)N(C)[C@H](C(=O)N(C)C)CC(=O)N(C)[C@@H](CC3CCCC3)C(=O)N[C@@H]([C@@H](C)CC)C(=O)N(C)CC(=O)N(C)[C@H]3C/C=C\CCN(C3=O)[C@@H](Cc3ccc(C)cc3)C(=O)N(C)CC(=O)N[C@@H](CCc3ccc(Cl)c(Cl)c3)C(=O)N2C1 [PP1487]	A (a compound having 10 or more and less than 20 is denoted as A)	A (a compound having 10 or more and less than 20 is denoted as A)	46.6
CCO[C@@H]1C[C@H]2C(=O)NC3(CCC3)C(=O)N(C)[C@@H](C3CCCC3)C(=O)N(C)[C@H](C)CC(=O)N(C)[C@@H](CC3CC3)C(=O)N[C@@H]([C@@H](C)CC)C(=O)N(C)CC(=O)N(C)[C@H]3C/C=C\CCN(C3=O)[C@@H](Cc3ccc(F)cc3C)C(=O)N(C)CC(=O)N[C@@H](CCc3cc(F)c(C(F)(F)F)c(F)c3)C(=O)N2C1 [PP1489]	B (a compound having 3 or more and less than 10 is denoted as B)	B (a compound having 3 or more and less than 10 is denoted as B)	118
CCO[C@@H]1C[C@H]2C(=O)NC3(CCC3)C(=O)N(C)[C@@H](C3CCCC3)C(=O)N(C)[C@H](C)CC(=O)N(C)[C@@H](CC3CC3)C(=O)N[C@@H]([C@@H](C)CC)C(=O)N(C)CC(=O)N(C)[C@H]3C/C=C\CCN(C3=O)[C@@H](Cc3ccc(F)cc3)C(=O)N(C)CC(=O)N[C@@H](CCc3cc(F)c(C(F)(F)F)c(F)c3)C(=O)N2C1 [PP1490]	B (a compound having 3 or more and less than 10 is denoted as B)	B (a compound having 3 or more and less than 10 is denoted as B)	48.9
CCO[C@@H]1C[C@H]2C(=O)NC3(CCC3)C(=O)N(C)[C@@H](C3CCCC3)C(=O)N(C)[C@H](C)CC(=O)N(C)[C@@H](CC3CCCC3)C(=O)N[C@@H]([C@@H](C)CC)C(=O)N(C)CC(=O)N(C)[C@H]3C/C=C\CCN(C3=O)[C@@H](Cc3ccc(F)cc3)C(=O)N(C)CC(=O)N[C@@H](CCc3cc(F)c(C(F)(F)F)c(F)c3)C(=O)N2C1 [PP1492]	B (a compound having 3 or more and less than 10 is denoted as B)	B (a compound having 3 or more and less than 10 is denoted as B)	129
CCO[C@@H]1C[C@H]2C(=O)NC3(CCC3)C(=O)N(C)[C@@H](C3CCCC3)C(=O)N(C)[C@H](C)CC(=O)N(C)[C@@H](CC(C)C)C(=O)N[C@@H]([C@@H](C)CC)C(=O)N(C)CC(=O)N(C)[C@H]3C/C=C\CCN(C3=O)[C@@H](Cc3ccc(F)cc3C)C(=O)N(C)CC(=O)N[C@@H](CCc3cc(F)c(C(F)(F)F)c(F)c3)C(=O)N2C1 [PP1493]	B (a compound having 3 or more and less than 10 is denoted as B)	B (a compound having 3 or more and less than 10 is denoted as B)	135
CCO[C@@H]1C[C@H]2C(=O)NC3(CCC3)C(=O)N(C)[C@@H](C3CCCC3)C(=O)N(C)[C@H](C)CC(=O)N(C)[C@@H](CC(C)C)C(=O)N[C@@H]([C@@H](C)CC)C(=O)N(C)CC(=O)N(C)[C@H]3C/C=C\CCN(C3=O)[C@@H](Cc3ccc(F)cc3)C(=O)N(C)CC(=O)N[C@@H](CCc3cc(F)c(C(F)(F)F)c(F)c3)C(=O)N2C1 [PP1494]	B (a compound having 3 or more and less than 10 is denoted as B)	B (a compound having 3 or more and less than 10 is denoted as B)	142
CCO[C@@H]1C[C@H]2C(=O)NC3(CCC3)C(=O)N(C)[C@@H](C3CCCC3)C(=O)N(C)[C@H](C(=O)N3CCOCC3)CC(=O)N(C)[C@@H](CC3CC3)C(=O)N[C@@H]([C@@H](C)CC)C(=O)N(C)CC(=O)N(C)[C@H]3C/C=C\CCN(C3=O)[C@@H](Cc3ccc(F)cc3C)C(=O)N(C)CC(=O)N[C@@H](CCc3cc(F)c(C(F)(F)F)c(F)c3)C(=O)N2C1 [PP1495]	B (a compound having 3 or more and less than 10 is denoted as B)	A (a compound having 10 or more and less than 20 is denoted as A)	98.7
CCO[C@@H]1C[C@H]2C(=O)NC3(CCC3)C(=O)N(C)[C@@H](C3CCCC3)C(=O)N(C)[C@H](C(=O)N3CCOCC3)CC(=O)N(C)[C@@H](CC3CC3)C(=O)N[C@@H]([C@@H](C)CC)C(=O)N(C)CC(=O)N(C)[C@H]3C/C=C\CCN(C3=O)[C@@H](Cc3ccc(F)cc3)C(=O)N(C)CC(=O)N[C@@H](CCc3cc(F)c(C(F)(F)F)c(F)c3)C(=O)N2C1 [PP1496]	B (a compound having 3 or more and less than 10 is denoted as B)	A (a compound having 10 or more and less than 20 is denoted as A)	36.7
CC[C@H](C)[C@@H]1NC(=O)[C@H](CC2CCCC2)N(C)C(=O)C[C@@H](C(=O)N(C)C)N(C)C(=O)[C@H](C2CCCC2)N(C)C(=O)C2(CCC2)NC(=O)[C@@H]2C[C@@H](F)CN2C(=O)[C@H](CCc2cc(F)c(C(F)(F)F)c(F)c2)NC(=O)CN(C)C(=O)[C@H](Cc2ccc(C(F)(F)F)cc2)N2CC/C=C\C[C@@H](C2=O)N(C)C(=O)CN(C)C1=O [PP1502]	A (a compound having 10 or more and less than 20 is denoted as A)	A (a compound having 10 or more and less than 20 is denoted as A)	2
